The numbers were not newly measured in patent US9974685B2, “Drug delivery system and methods of treating open angle glaucoma and ocular hypertension” (Mati Therapeutics, Inc., priority 2011, dated 2018), which cites them from elsewhere.

Each structure is given as a SMILES string.

The test system of one series is cynomolgus monkeys. The settings on record: doses up to 50 μg/eye twice daily (100 μg/eye/day), 52 weeks, not judged to be deleterious.
The subject of the next series is rabbits. As to conditions: twice-daily ocular instillation, doses up to 50 μg per eye for 52 weeks (100 μg/eye/day).
The next series deals with healthy volunteers. The settings on record: 28 healthy volunteers; 1 drop of 50 μg/mL 4 times daily for 2 weeks; resolved spontaneously without cessation of treatment.

`CC(C)OC(=O)CCC/C=C\C[C@@H]1[C@@H](CC[C@@H](O)CCc2ccccc2)[C@H](O)C[C@@H]1O` [Latanoprost, isopropyl-(Z)-7 [(1R,2R,3R,5S)3,5-dihydroxy-2-[(3R)-3-hydroxy-5-phenylpentyl]cyclopentyl]-5-heptenoate]: the effects observed entry in the series on cynomolgus monkeys was “a reversible change in the aspect of the palpebral fissure and a non-reversible increase in iris pigmentation”. The “solubility in organic solvents” value (acetone, ethanol, ethyl acetate, isopropanol, methanol and octanol) was “freely soluble”. In addition, the solubility in acetonitrile entry (acetonitrile) is given as “very soluble”. For the same compound, the solubility in water entry (water) was “practically insoluble”. In addition, the adverse effects entry in the series on rabbits is recorded as “no adverse effects”. Further, in the series on healthy volunteers, the “ocular effects during the 4-dose regimen” value is “transient photophobia, cells, and mild flare were common”.
